For one data set, the target named is JAK1 (Homo sapiens, UniProt P23458). Nature of the data set: JAK kinase inhibitory activity, HTRF biochemical assay. How it is done: (§1) The compounds of the above embodiments were applied to the detection and screening of JAK kinase inhibitory activity.
(§2) A corresponding volume of DMSO was added to each well of a first 96-well plate. 20-30 μL of 100-200 μM stock solution of different test compounds were added to each well. The mixture was shaken and mixed for 3 min. All of the compounds were subjected to 3× serial dilution. 60-80 μL Kinase buffer was added to each well of a second 96-well plate, and 1-2 μL of the solution taken from each well of the first 96-well plate was added to the corresponding well of the second 96-well plate. The mixture was shaken and mixed for 3 min. 5 μL of compound dilution taken from each well of the second compound dilution plate was transferred to the corresponding well of a 384-well test plate. 1-2 μL TK Substrate-biotin was added to each well of the test plate. 1-2 μL of enzyme mixture was added to each well. At the same time, a blank well without enzyme was set. 1-2 μL of ATP solution was added to each well, the plate was sealed and reacted at room temperature. The reaction time was as follows: JAK1: 2 h, JAK2: 30 min, JAK3: 30 min, and TYK2: 50 min. 3-5 μL of Streptavidin-XL665 and 3-5 μL of TK Antibody-cryptate were added to each well, the plate was sealed and allowed to stand at room temperature for 30 min to complete the reaction.
(§3) The percentage of inhibition was calculated based on the following formula:
(§4) Inhibition %=[(Ratiomax−Ratiocompound)/(Ratiomax−Ratiomin)]×100%
(§5) Ratiocompound is the HTRF ratio at a given compound concentration, Ratiomin is the HTRF ratio added to the blank well, and Ratiomax is the HTRF ratio without adding the compound. GraphPad Prism 5.0 software was used to plot a sigmoid dose-inhibition rate curve with a non-linear regression model and calculate the IC50 value.

The target in another data set is JAK2 (Homo sapiens, UniProt O60674). Described as above. Here is the method: as §1, §2, §3, §4, §5
For another data set, the system named is Hela cells. Nature of the data set: Proliferation inhibition based on Hela cells (OSM stimulation, CTG). Type of data set: cell-based. As to conditions: Homo sapiens, OSM stimulation, read-out: IC50 (uM), proliferation inhibitory activity on Hela cells. Here is the method:
1. Cell plating: cultured cells were collected and counted for viable cells with Vi-Cell XR cell counter. The cell suspension was adjusted to an appropriate concentration with the medium and then added to a 96-well cell culture plate. 50 μL-100 μL of the cell suspension was added to each well of the 96-well cell culture plate. The cell plating density depended on the growth rate of the cells. The cells were cultured in corresponding incubators.
2. Drug Treatment and OSM Stimulation
(§6) Firstly, a series of test compound concentration (work solution-1) was prepared using DMSO with 3× gradient dilution, and then it was subjected to fold dilution with RPMI1640+10% FBS to obtain a work solution-2; Cisplatin's work solution-2 was prepared with RPMI1640+10% FBS, and then 1-10 μL solution taken from the work solution-2 was added to the prepared cell wells containing medium. After incubation, 1-10 μL of OSM medium was added to each well and continued to culture. An appropriate CTG solution was added to each well. The mixture was shaken and mixed for 1-5 min and then a luminescence signal was determined with an Envision2104 plate reader.
(§7) Cell Survival Rate Calculation
(§8) T is the luminescence reading of a drug treatment group, and C is the average luminescence reading of a solvent control group.

Another data set concerns THP1 cells. Nature of the data set: Proliferation inhibition based on THP1 cells (IL-4 stimulation, CTG). The class given is cell-based. As to conditions: Homo sapiens, THP-1, read-out: IC50 (uM), proliferation inhibitory activity on THP1 cells. How it is done: 1. Cell plating: cultured cells were collected and counted for viable cells with Vi-Cell XR cell counter. The cell suspension was adjusted to an appropriate concentration with the medium and then added to a 96-well cell culture plate. 80 μL of the cell suspension was added to each well of the 96-well cell culture plate. The cell plating density depended on the growth rate of the cells. The cells were cultured in corresponding incubators.
as §6, with “2. Drug treatment and IL-4 stimulation: firstly,” for “Firstly,”, “medium. The cells were cultured in the corresponding incubators.” for “medium.”, “IL-4” for “OSM”, “well.” for “well. The mixture was shaken and mixed for 1-5 min and then a luminescence signal was determined with an Envision2104 plate reader.”
Cell Survial Rate Calculation
as §8

The next data set has as its system BaF3 cells. Nature of the data set: Proliferation inhibition based on BaF3 cells (IL-3 medium, CTG). Type of data set: cell-based. Conditions: Mus musculus, medium containing IL-3, read-out: IC50 (uM), proliferation inhibitory activity on BaF3 cells. Here is the method:
1. Cell plating: cultured cells were collected with RPMI1640+10% FBS (containing IL-3) medium and counted for viable cells with Vi-Cell XR cell counter. The cell suspension was adjusted to an appropriate concentration with RPMI1640+10% FBS (containing IL-3) medium and then added to a 96-well cell culture plate. A certain amount of cell suspension was added to each well of the 96-well cell culture plate. The cells were cultured in corresponding incubators.
2. Drug treatment: a series of test compound concentration (work solution-1) was prepared using DMSO with 3× gradient dilution, and then it was subjected to fold dilution with RPMI1640+10% FBS (containing IL-3) to obtain a work solution-2; Cisplatin's work solution-2 was prepared with RPMI1640+10% FBS (containing IL-3), and then 1-10 μL solution taken from the work solution-2 was added to the prepared cell wells containing medium. The cells were cultured in the corresponding incubators. An appropriate CTG solution was added to each well.
as §7, §8

Data set [1] relates to rat CIA model. Nature of the data set: Hindfoot foot volume in rat CIA model. Type of data set: in vivo, Lewis rats. Conditions: CIA rats, hindfoot, 2 mg/kg oral gavage once daily for 2 w.
Method: (§9) Lewis rats (female, 10-12 weeks old) were obtained from Beijing Vital River Laboratory Animal Technology Co., Ltd. The rats were on a light and dark alternation for 12 h, and the environment was kept at a temperature of 23±2° C. and a humidity of 40-70%.
(§10) Type II collagen solution (2 mg/mL) was prepared with 0.05 M acetic acid solution to allow to be fully dissolved, and placed overnight in the dark at 4° C. During the test, 2 mg/mL type II collagen (C II) solution and 4 mg/mL complete Freund's adjuvant (CFA) solution were mixed in equal volumes under ice bath conditions to fully emulsify. On day 0, an emulsion prepared by mixing equal volumes of C II (2 mg/mL) and CFA (4 mg/mL) was injected intracutaneously into the base of the tail of experimental rats for primary immunization, and on day 7, secondary booster immunization was performed.
(§11) The therapeutic effect of the test compound was tested in a rat CIA model. The rats were randomly divided into groups with 8 animals in each group. All animals were immunized on day 0 and boosted on day 7.
(§12) Therefore, the differences in body weight and foot volume after the onset of arthritis compared with the negative group, respectively, can be used to evaluate the therapeutic effect in the rat model. The experimental data were expressed as Mean±SEM; the data between the two groups was tested by unpaired t-test and p<0.05 was considered as a significant difference.
The test system of data set [2] is rat CIA model. Nature of the data set: Arthritis index (AI) of extremities in rat CIA model.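 Further: rats immunized with type II collagen plus complete Freund's adjuvant on day 0, boosted day 7, groups of 8, each paw graded 0-4 for swelling or redness, higher means worse.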 As to conditions: CIA rats, 2 mg/kg oral gavage once daily for 2 w, score 0-16.
Method: as §9, §10, §11
Foot volume was scored for the swelling of four toes at the same time, the score for each foot was 0-4, and the highest score for each rat was 16. 0—no swelling, normal appearance; 1—mild swelling or redness of the ankle joint, wrist joint or finger joint; 2—moderate swelling or redness of the ankle joint, wrist joint or finger joint; 3—severe swelling or redness of the ankle joint, wrist joint or finger joint; 4—very severe swelling or redness of the ankle joint, wrist joint or finger joint.
A further data set is described as follows: Body weight of CIA rats. As to conditions: 2 mg/kg oral gavage once daily for 2 w.

Sequence of JAK1 (P23458 whole entry, species assumed): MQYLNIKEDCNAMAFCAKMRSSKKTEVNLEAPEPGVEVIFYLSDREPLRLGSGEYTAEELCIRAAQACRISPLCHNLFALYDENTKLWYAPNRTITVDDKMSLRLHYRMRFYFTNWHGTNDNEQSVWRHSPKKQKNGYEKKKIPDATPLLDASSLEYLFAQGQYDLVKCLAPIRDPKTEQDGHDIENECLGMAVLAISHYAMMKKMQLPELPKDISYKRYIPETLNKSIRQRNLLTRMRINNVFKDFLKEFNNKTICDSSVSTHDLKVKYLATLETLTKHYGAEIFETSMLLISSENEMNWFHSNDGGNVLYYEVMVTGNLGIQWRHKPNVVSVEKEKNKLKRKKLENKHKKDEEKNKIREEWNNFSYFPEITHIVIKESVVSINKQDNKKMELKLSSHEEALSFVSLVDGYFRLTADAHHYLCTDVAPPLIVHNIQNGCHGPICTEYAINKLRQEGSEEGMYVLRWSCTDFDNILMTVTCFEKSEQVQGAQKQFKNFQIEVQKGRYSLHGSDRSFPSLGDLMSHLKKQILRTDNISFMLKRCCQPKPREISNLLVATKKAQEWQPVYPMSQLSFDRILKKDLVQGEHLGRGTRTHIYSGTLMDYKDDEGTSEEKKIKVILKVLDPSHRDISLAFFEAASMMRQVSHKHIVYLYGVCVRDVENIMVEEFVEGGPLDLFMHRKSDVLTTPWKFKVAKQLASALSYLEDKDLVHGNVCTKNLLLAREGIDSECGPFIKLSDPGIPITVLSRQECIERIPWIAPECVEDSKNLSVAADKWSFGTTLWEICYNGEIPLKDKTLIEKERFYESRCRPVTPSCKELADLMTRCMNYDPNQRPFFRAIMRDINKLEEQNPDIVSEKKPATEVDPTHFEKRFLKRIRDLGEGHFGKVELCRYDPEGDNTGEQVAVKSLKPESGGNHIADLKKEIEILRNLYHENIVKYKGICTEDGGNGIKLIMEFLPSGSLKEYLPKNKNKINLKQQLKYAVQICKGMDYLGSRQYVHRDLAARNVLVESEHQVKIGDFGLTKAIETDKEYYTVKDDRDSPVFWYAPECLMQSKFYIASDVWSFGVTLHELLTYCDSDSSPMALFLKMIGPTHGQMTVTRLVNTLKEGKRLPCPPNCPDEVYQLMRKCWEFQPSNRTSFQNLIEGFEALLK
Sequence of JAK2 (O60674 whole entry, species assumed): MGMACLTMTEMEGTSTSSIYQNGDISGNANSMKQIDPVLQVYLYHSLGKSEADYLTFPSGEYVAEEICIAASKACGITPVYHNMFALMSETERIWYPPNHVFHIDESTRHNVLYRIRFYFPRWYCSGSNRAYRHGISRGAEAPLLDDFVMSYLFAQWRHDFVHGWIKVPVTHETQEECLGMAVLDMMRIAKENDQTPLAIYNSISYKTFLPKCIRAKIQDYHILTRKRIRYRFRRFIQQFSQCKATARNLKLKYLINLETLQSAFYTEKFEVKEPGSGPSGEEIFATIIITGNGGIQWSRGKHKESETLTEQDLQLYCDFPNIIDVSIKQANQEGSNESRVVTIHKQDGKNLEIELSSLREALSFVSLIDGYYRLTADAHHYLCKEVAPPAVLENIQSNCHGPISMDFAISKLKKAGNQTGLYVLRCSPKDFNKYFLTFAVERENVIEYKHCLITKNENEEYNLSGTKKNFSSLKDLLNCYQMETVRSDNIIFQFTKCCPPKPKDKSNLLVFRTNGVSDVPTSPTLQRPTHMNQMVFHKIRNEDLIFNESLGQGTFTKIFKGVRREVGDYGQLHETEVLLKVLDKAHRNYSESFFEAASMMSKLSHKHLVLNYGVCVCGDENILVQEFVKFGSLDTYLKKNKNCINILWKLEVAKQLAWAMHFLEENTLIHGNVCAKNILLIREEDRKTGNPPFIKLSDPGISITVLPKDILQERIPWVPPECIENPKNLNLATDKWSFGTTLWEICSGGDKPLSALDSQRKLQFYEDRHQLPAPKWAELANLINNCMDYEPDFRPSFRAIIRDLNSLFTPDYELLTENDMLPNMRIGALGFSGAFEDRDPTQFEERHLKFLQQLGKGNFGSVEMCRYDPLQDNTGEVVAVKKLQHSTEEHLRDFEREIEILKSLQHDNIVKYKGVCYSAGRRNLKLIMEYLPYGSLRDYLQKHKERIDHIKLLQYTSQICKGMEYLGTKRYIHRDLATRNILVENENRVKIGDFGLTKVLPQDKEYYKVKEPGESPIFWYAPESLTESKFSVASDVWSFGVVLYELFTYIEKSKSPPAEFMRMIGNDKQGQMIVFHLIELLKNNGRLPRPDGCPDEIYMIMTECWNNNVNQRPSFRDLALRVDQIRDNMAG
Method for Body weight of CIA rats: as §9, §10, §11, §12

`O=C(Nc1nc2cccc(-c3nnc(CN4CCS(=O)(=O)CC4)o3)n2n1)C1CC1` [EXP-15, N-[5-[5-[(1,1-dioxo-1,4-thiazin-4-)methyl]-1,3,4-oxadiazole-2-]-[1,2,4]triazolo[1,5-a]pyridine-2-]cyclopropylcarboxamide] returned an IC50 on JAK1 above 500 nM.

For the compound `O=C(Nc1nc2cccc(-c3ccc(COCCc4cn[nH]c4)s3)n2n1)C1CC1` [EXP-16, N-[5-[5-[2-(1H-pyrazol-4-yl)-ethoxymethyl]-2-thienyl]-[1,2,4]triazolo[1,5-a]pyridin-2-yl]cylopropanecarboxamide], the IC50 on JAK1 is above 500 nM.

With `O=C(NCCc1nccs1)c1cc(-c2cccc3nc(NC(=O)C4CC4)nn23)cs1` [EXP-18], the IC50 against JAK1 and against JAK2 was 50 to 500 nM throughout.

Turning to `O=C(Nc1nc2cccc(-c3nnc(CN4CCS(=O)(=O)CC4)s3)n2n1)C1CC1` [EXP-14, N-[5-[5-[(1,1-dioxo-1,4-thiazin-4-)methyl]-1,3,4-thiadiazol-2-]-[1,2,4]triazolo[1,5-a]pyridine-2-]cyclopropylcarboxamide], the IC50 against JAK1 and on JAK2 was above 500 nM each time.

With `O=C(Nc1nc2cccc(-c3cnc(CN4CCS(=O)(=O)CC4)s3)n2n1)C1CC1` [EXP-4, N-[5-[2-[(1,1-dioxo-1,4-thiazine-4-)methyl]thiazol-5-]-[1,2,4]triazolo[1,5-a]pyridine-2-]cyclopropylcarboxamide], the IC50 on JAK1 is above 500 nM; in the data set on Hela cells it was 5 to 30 µM; with THP1 cells it was 5 to 30 µM; with BaF3 cells, 5 to 30 µM.

`Cc1cc(-c2cccc3nc(NC(=O)C4CC4)nn23)sc1CN1CCC(F)(F)CC1` [EXP-13]: the IC50 on JAK1 and on JAK2 was 30 to 50 nM each time.

Turning to `O=C(Nc1nc2cccc(-c3ccc(CN4CCC(C(F)(F)F)CC4)s3)n2n1)[C@H]1C[C@@H]1F` [EXP-11], the IC50 against JAK1 and against JAK2 was 50 to 500 nM throughout.

Take `CC1(C(=O)Nc2nc3cccc(-c4ccc(CN5CCS(=O)(=O)CC5)s4)n3n2)CC1(F)F` (centres unmarked) [EXP-7]: the IC50 on JAK1 and at JAK2 was above 500 nM each time.

Compound `O=C(Nc1nc2cccc(-c3ccc(CN4CCS(=O)(=O)CC4)s3)n2n1)C1(F)CC1` [EXP-10] yielded an IC50 at JAK1 above 500 nM.

On to `O=C(Nc1nc2cccc(-c3ccc(CN4CCS(=O)(=O)CC4)s3)n2n1)[C@@H]1C[C@H]1C(F)(F)F` [EXP-9], for which the IC50 at JAK1 and at JAK2 was 50 to 500 nM each time.

`O=C(Nc1nc2cccc(-c3ccc(CN4CCC(OC(F)(F)F)CC4)s3)n2n1)[C@H]1C[C@@H]1F` (relative stereo) [EXP-19]: on JAK1, the IC50 is above 500 nM.

Compound `O=C(NCCc1nccs1)c1ccc(-c2cccc3nc(NC(=O)C4CC4)nn23)s1` [EXP-17, 5-[2-[2-thiazole-2-ethyl]carboxamido]-thiophene-[1,2,4]triazolo[1,5-a]pyridine-2-cyclopropanecarboxamide] had an IC50 at JAK1 above 500 nM.

Consider `CC[C@@H]1CN(C(=O)NCC(F)(F)F)C[C@@H]1c1cnc2cnc3[nH]ccc3n12` [Upadacitinib, upadacitinib, reference compound], for which the “Foot volume (ml)/Day” value is 2.611 ± 0.022 mL with rat CIA model [1] (day 0); 2.599 ± 0.020 mL in the data set with rat CIA model [1] (day 8); 2.738 ± 0.110 mL in the data set with rat CIA model [1] (day 11); 3.675 ± 0.314 mL in the data set with rat CIA model [1] (day 14); 4.126 ± 0.301 mL in the data set on rat CIA model [1] (day 17); 4.591 mL with rat CIA model [1] (day 21). Moreover, the “Foot volume (ml)/Day” value with rat CIA model [1] (day 24) was 4.403 mL; in the data set with rat CIA model [1] (day 28) it was 3.990 mL. For the same compound, the “Arthritis index/Day” value with rat CIA model [2] (day 0) was determined as 0 ± 0; in the data set on rat CIA model [2] (day 8), 0 ± 0; in the data set on rat CIA model [2] (day 11) it was 0.63 ± 0.38; with rat CIA model [2] (day 14), 3.50 ± 0.73; in the data set with rat CIA model [2] (day 17), 5.50 ± 1.00; in the data set on rat CIA model [2] (day 21), 9.00 ± 1.07. Moreover, in the data set with rat CIA model [2] (day 24), the “Arthritis index/Day” value stood at 9.38 ± 0.71. Moreover, the “Body weight (g)/Day” value in the data set “Body weight of CIA rats” (day 0) is 172.3 ± 1.8 g; in the data set “Body weight of CIA rats” (day 8), 170.4 ± 2.1 g; in “Body weight of CIA rats” (day 11), 169.4 ± 2.8 g; in “Body weight of CIA rats” (day 14), 170 ± 2.2 g; in the data set “Body weight of CIA rats” (day 17) it was 170.8 ± 3.3 g; in the data set “Body weight of CIA rats” (day 21), 168.6 ± 2.9 g. For the same compound, the “Body weight (g)/Day” value was 165.9 ± 2.9 g in the data set “Body weight of CIA rats” (day 24) and 170.5 ± 3.1 g in the data set “Body weight of CIA rats” (day 28).

At JAK1, `O=C(Nc1nc2cccc(-c3ccc(CN4CCC(F)(F)CC4)s3)n2n1)[C@H]1C[C@@H]1F` (relative stereo) [EXP-12, trans-N-[5-[5-[(4,4-difluoro-1-piperidinyl)methyl]-2-thienyl]-[1,2,4]triazolo[1,5-a]pyridin-2-yl]-2-fluorocyclopropanecarboxamide] gave an IC50 of 50 to 500 nM.

Turning to `O=C(Nc1nc2cccc(-c3ccc(CN4CCS(=O)(=O)CC4)s3)n2n1)[C@H]1C[C@H]1C(F)(F)F` [EXP-8], the IC50 against JAK1 and on JAK2 was above 500 nM in each case.

These data come from patent US20220274983A1, “JAK KINASE INHIBITOR AND USE THEREOF” (JIANGSU CAREPHAR PHARMACEUTICAL CO., LTD., priority 2019, published 2022).
